Assay results taken from PubChem BioAssay AID1919006 (Molecular Pharmacology Branch, DTP, NCI, 2023).
“And” between values parts separate entries of the source, which are not always exact repeats. Equal values may be shown once.

Test system: 885512-296-R-J2-PDC complex spheroid growth, % test/control
Test: Anticancer human tumor 885512-296-R-J2-PDC patient-derived breast carcinoma cell line growth inhibition [AhR]
Details: for viability, T/C: stronger effect = lower value
Summary of the method: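 Spheroids combined tumor cells with HUVEC endothelial cells and human MSCs as stroma. AhR antagonists were paired with standard or investigational drugs, each dosed in half-log steps down from near clinical Cmax, or from 10 microM where Cmax was unknown.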

[1] = curve of first compound, second compound 0.1 µM
[2] = curve of first compound, second compound 0.316 µM
[3] = curve of first compound, second compound 1 µM
[4] = curve of first compound, second compound 3.16 µM
[5] = curve of first compound, second compound 10 µM
[6] = second compound 0.1 µM, first compound 0.0316 µM
[7] = second compound 0.1 µM, first compound 0.1 µM
[8] = second compound 0.1 µM, first compound 0.316 µM
[9] = second compound 0.1 µM, first compound 1 µM
[10] = second compound 0.1 µM, first compound 3.16 µM
[11] = second compound 0.1 µM, first compound 10 µM
[12] = second compound 0.316 µM, first compound 0.0316 µM
[13] = second compound 0.316 µM, first compound 0.1 µM
[14] = second compound 0.316 µM, first compound 0.316 µM
[15] = second compound 0.316 µM, first compound 1 µM
[16] = second compound 0.316 µM, first compound 3.16 µM
[17] = second compound 0.316 µM, first compound 10 µM
[18] = second compound 1 µM, first compound 0.0316 µM
[19] = second compound 1 µM, first compound 0.1 µM
[20] = second compound 1 µM, first compound 0.316 µM
[21] = second compound 1 µM, first compound 1 µM
[22] = second compound 1 µM, first compound 3.16 µM
[23] = second compound 1 µM, first compound 10 µM
[24] = second compound 3.16 µM, first compound 0.0316 µM
[25] = second compound 3.16 µM, first compound 0.1 µM
[26] = second compound 3.16 µM, first compound 0.316 µM
[27] = second compound 3.16 µM, first compound 1 µM
[28] = second compound 3.16 µM, first compound 3.16 µM
[29] = second compound 3.16 µM, first compound 10 µM
[30] = second compound 10 µM, first compound 0.0316 µM
[31] = second compound 10 µM, first compound 0.1 µM
[32] = second compound 10 µM, first compound 0.316 µM
[33] = second compound 10 µM, first compound 1 µM
[34] = second compound 10 µM, first compound 3.16 µM
[35] = second compound 10 µM, first compound 10 µM
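Further: spheroids exposed to compounds for seven days.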

SMILES: CC1(C)CCC(CN2CCN(c3ccc(C(=O)NS(=O)(=O)c4ccc(NCC5CCOCC5)c([N+](=O)[O-])c4)c(Oc4cnc5[nH]ccc5c4)c3)CC2)=C(c2ccc(Cl)cc2)C1 + CC(CO)NC(=O)c1cc(-c2ccc(Cl)cc2)nn(-c2cnn(C)c2)c1=O
- IC50 [1]: 6340 nM
- IC50 [2]: 7190 nM
- IC50 [3]: 7580 nM
- IC50 [4]: 7840 nM
- IC50 [5]: 8440 nM
- viability, T/C [6]: 111%
- viability, T/C [7]: 105%
- viability, T/C [8]: 102%
- viability, T/C [9]: 91.7%
- viability, T/C [10]: 70.7%
- viability, T/C [11]: 36.4%
- viability, T/C [12]: 96.3%
- viability, T/C [13]: 111%
- viability, T/C [14]: 100%
- viability, T/C [15]: 96.5%
- viability, T/C [16]: 70.6%
- viability, T/C [17]: 41.7%
- viability, T/C [18]: 96.7%
- viability, T/C [19]: 108%
- viability, T/C [20]: 112%
- viability, T/C [21]: 99.7%
- viability, T/C [22]: 78.6%
- viability, T/C [23]: 41%
- viability, T/C [24]: 102%
- viability, T/C [25]: 118%
- viability, T/C [26]: 103%
- viability, T/C [27]: 100%
- viability, T/C [28]: 81.5%
- viability, T/C [29]: 41.6%
- viability, T/C [30]: 106%
- viability, T/C [31]: 99.4%
- viability, T/C [32]: 103%
- viability, T/C [33]: 103%
- viability, T/C [34]: 90.8%
- viability, T/C [35]: 42.6%

SMILES: CC1COCCN1c1cc(-c2ccnn2C)c2ccnc(-c3ccn[nH]3)c2n1 (centres undefined) + Cc1ccccc1N=Nc1ccc(NC(=O)c2ccnn2C)c(C)c1
- IC50 [1]: 35.4 nM
- IC50 [2]: 42 nM
- IC50 [3]: 40.5 nM
- IC50 [4]: 41 nM
- IC50 [5]: 11.8 nM
- viability, T/C (second compound 0.1 µM, first compound 0.00316 µM): 97.7%
- viability, T/C (second compound 0.1 µM, first compound 0.01 µM): 97.6%
- viability, T/C [6]: 53.6%
- viability, T/C [7]: 11.1%
- viability, T/C [8]: 3.35%
- viability, T/C [9]: 2.33%
- viability, T/C (second compound 0.316 µM, first compound 0.00316 µM): 108%
- viability, T/C (second compound 0.316 µM, first compound 0.01 µM): 87.6%
- viability, T/C [12]: 65.3%
- viability, T/C [13]: 10.9%
- viability, T/C [14]: 3.03%
- viability, T/C [15]: 2.67%
- viability, T/C (second compound 1 µM, first compound 0.00316 µM): 98.4%
- viability, T/C (second compound 1 µM, first compound 0.01 µM): 85.5%
- viability, T/C [18]: 61.6%
- viability, T/C [19]: 12%
- viability, T/C [20]: 4.35%
- viability, T/C [21]: 2.65%
- viability, T/C (second compound 3.16 µM, first compound 0.00316 µM): 89.8%
- viability, T/C (second compound 3.16 µM, first compound 0.01 µM): 86.3%
- viability, T/C [24]: 61.6%
- viability, T/C [25]: 10.3%
- viability, T/C [26]: 3.42%
- viability, T/C [27]: 2.63%
- viability, T/C (second compound 10 µM, first compound 0.00316 µM): 57.1%
- viability, T/C (second compound 10 µM, first compound 0.01 µM): 47.7%
- viability, T/C [30]: 38.3%
- viability, T/C [31]: 7.15%
- viability, T/C [32]: 2.64%
- viability, T/C [33]: 2.57%

SMILES: CC1COCCN1c1cc(C2(S(C)(=N)=O)CC2)nc(-c2ccnc3[nH]ccc23)n1 (centres undefined)
- viability, T/C (compound 0.0316 µM): 103% and 100% and 97%
- viability, T/C (compound 0.1 µM): 107% and 96.4% and 98.6%
- viability, T/C (compound 0.316 µM): 101% and 104% and 91.9%
- viability, T/C (compound 1 µM): 86.5% and 73.7% and 82.7%
- viability, T/C (compound 3.16 µM): 31.6% and 18.2% and 17.2%
- viability, T/C (compound 10 µM): 5.26% and 5.01% and 5.03%
- IC50 (curve of compound): 2150 nM and 1640 nM and 1780 nM

SMILES: Nc1ccccc1NC(=O)c1ccc(CNC(=O)OCc2cccnc2)cc1 + Cc1cncc(-c2nc(NCCc3c[nH]c4ccccc34)c3ncn(C(C)C)c3n2)c1
- IC50 [1]: 1040 nM
- IC50 [2]: 1120 nM
- IC50 [3]: 1060 nM
- IC50 [4]: 373 nM
- IC50 [5]: < 31.6 nM
- viability, T/C [6]: 85.6%
- viability, T/C [7]: 102%
- viability, T/C [8]: 80.5%
- viability, T/C [9]: 47.3%
- viability, T/C [10]: 31.2%
- viability, T/C [11]: 12.6%
- viability, T/C [12]: 86.9%
- viability, T/C [13]: 94.4%
- viability, T/C [14]: 72%
- viability, T/C [15]: 49.4%
- viability, T/C [16]: 32.7%
- viability, T/C [17]: 12.2%
- viability, T/C [18]: 82.3%
- viability, T/C [19]: 78.7%
- viability, T/C [20]: 77.7%
- viability, T/C [21]: 48%
- viability, T/C [22]: 29.6%
- viability, T/C [23]: 15.2%
- viability, T/C [24]: 56.6%
- viability, T/C [25]: 61.3%
- viability, T/C [26]: 49.5%
- viability, T/C [27]: 40.4%
- viability, T/C [28]: 25.1%
- viability, T/C [29]: 15.2%
- viability, T/C [30]: 21.3%
- viability, T/C [31]: 19.4%
- viability, T/C [32]: 15.9%
- viability, T/C [33]: 11.6%
- viability, T/C [34]: 9.94%
- viability, T/C [35]: 9.37%

SMILES: CCN(c1cc(-c2ccc(CN3CCOCC3)cc2)cc(C(=O)NCc2c(C)cc(C)[nH]c2=O)c1C)C1CCOCC1 + Cc1ccccc1N=Nc1ccc(NC(=O)c2ccnn2C)c(C)c1
- IC50 [1]: > 3000 nM
- IC50 [2]: > 3000 nM
- IC50 [3]: > 3000 nM
- IC50 [4]: > 3000 nM
- IC50 [5]: 114 nM
- viability, T/C (second compound 0.1 µM, first compound 0.00949 µM): 116%
- viability, T/C (second compound 0.1 µM, first compound 0.03 µM): 111%
- viability, T/C (second compound 0.1 µM, first compound 0.0949 µM): 104%
- viability, T/C (second compound 0.1 µM, first compound 0.3 µM): 80.5%
- viability, T/C (second compound 0.1 µM, first compound 0.949 µM): 78.8%
- viability, T/C (second compound 0.1 µM, first compound 3 µM): 79%
- viability, T/C (second compound 0.316 µM, first compound 0.00949 µM): 117%
- viability, T/C (second compound 0.316 µM, first compound 0.03 µM): 110%
- viability, T/C (second compound 0.316 µM, first compound 0.0949 µM): 94.5%
- viability, T/C (second compound 0.316 µM, first compound 0.3 µM): 89.8%
- viability, T/C (second compound 0.316 µM, first compound 0.949 µM): 80.8%
- viability, T/C (second compound 0.316 µM, first compound 3 µM): 68.5%
- viability, T/C (second compound 1 µM, first compound 0.00949 µM): 106%
- viability, T/C (second compound 1 µM, first compound 0.03 µM): 108%
- viability, T/C (second compound 1 µM, first compound 0.0949 µM): 108%
- viability, T/C (second compound 1 µM, first compound 0.3 µM): 87.2%
- viability, T/C (second compound 1 µM, first compound 0.949 µM): 71%
- viability, T/C (second compound 1 µM, first compound 3 µM): 65.7%
- viability, T/C (second compound 3.16 µM, first compound 0.00949 µM): 98.6%
- viability, T/C (second compound 3.16 µM, first compound 0.03 µM): 95.5%
- viability, T/C (second compound 3.16 µM, first compound 0.0949 µM): 78.8%
- viability, T/C (second compound 3.16 µM, first compound 0.3 µM): 69.6%
- viability, T/C (second compound 3.16 µM, first compound 0.949 µM): 57.8%
- viability, T/C (second compound 3.16 µM, first compound 3 µM): 60.1%
- viability, T/C (second compound 10 µM, first compound 0.00949 µM): 49.1%
- viability, T/C (second compound 10 µM, first compound 0.03 µM): 62.3%
- viability, T/C (second compound 10 µM, first compound 0.0949 µM): 47.9%
- viability, T/C (second compound 10 µM, first compound 0.3 µM): 45.8%
- viability, T/C (second compound 10 µM, first compound 0.949 µM): 43.3%
- viability, T/C (second compound 10 µM, first compound 3 µM): 40.6%

SMILES: CC1COCCN1c1cc(-c2ccnn2C)c2ccnc(-c3ccn[nH]3)c2n1 (centres undefined)
- viability, T/C (compound 0.00316 µM): 82.9% and 88.1% and 101%
- viability, T/C (compound 0.01 µM): 87.9% and 89.4% and 87.5%
- viability, T/C (compound 0.0316 µM): 51.9% and 54.7% and 68%
- viability, T/C (compound 0.1 µM): 10.5% and 10.1% and 13%
- viability, T/C (compound 0.316 µM): 3.44% and 3.12% and 2.94%
- viability, T/C (compound 1 µM): 2.43% and 2.64% and 1.91%
- IC50 (curve of compound): 34 nM and 36 nM and 45.5 nM
